One experiment deals with Galectin-1 (Homo sapiens, UniProt P09382). Briefly: Fluorescence anisotropy assay, affinity for galectin-1. Type of experiment: binding. The settings on record: compound as inhibitor of the interaction between galectin and a fluorescein tagged saccharide probe. On the procedure: (§1) The affinity of Example 1-43 for galectins were determined by a fluorescence anisotropy assay where the compound was used as an inhibitor of the interaction between galectin and a fluorescein tagged saccharide probe as described Sörme, P., Kahl-Knutsson, B., Huflejt, M., Nilsson, U. J., and Leffler H. (2004) Fluorescence polarization as an analytical tool to evaluate galectin-ligand interactions. Anal. Biochem. 334: 36-47, (Sörme et al., 2004) and Monovalent interactions of Galectin-1 By Salomonsson, Emma; Larumbe, Amaia; Tejler, Johan; Tullberg, Erik; Rydberg, Hanna; Sundin, Anders; Khabut, Areej; Frejd, Torbjomn; Lobsanov, Yuri D.; Rini, James M.; et al, From Biochemistry (2010), 49(44), 9518-9532, (Salomonsson et al., 2010).

Another experiment has as its target Galectin-3 (Homo sapiens, UniProt P17931). Briefly: Fluorescence anisotropy assay, affinity for galectin-3. Particulars: compound as inhibitor of the interaction between galectin and a fluorescein tagged saccharide probe. Format: binding. On the procedure: as §1
In general terms: In fluorescence polarisation assays a small probe gives low polarisation when free and higher when bound to something large.

Chain of Galectin-3 (P17931 whole entry): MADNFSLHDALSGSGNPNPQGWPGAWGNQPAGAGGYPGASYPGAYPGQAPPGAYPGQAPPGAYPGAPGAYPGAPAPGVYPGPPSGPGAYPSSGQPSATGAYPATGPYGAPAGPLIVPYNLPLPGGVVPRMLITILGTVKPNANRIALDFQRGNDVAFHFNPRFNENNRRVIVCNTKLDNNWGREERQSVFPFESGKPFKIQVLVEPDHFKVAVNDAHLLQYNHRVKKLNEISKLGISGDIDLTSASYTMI
Chain of Galectin-1 (P09382 whole entry): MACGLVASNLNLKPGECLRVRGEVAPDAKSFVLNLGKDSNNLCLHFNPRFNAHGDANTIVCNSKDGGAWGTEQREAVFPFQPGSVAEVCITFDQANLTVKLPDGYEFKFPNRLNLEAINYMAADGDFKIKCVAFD

Consider `CNC(=O)c1ccc(Br)cc1S[C@H]1OC(CO)[C@H](O)C(n2cc(-n3ccc(Cl)n3)nn2)C1OC` (stereo partly drawn) [Example 1, 5-Bromo-2-(N-methyl-carbonyl)phenyl 3-[4-(3-chloro-1H-1,2-pyrazol-1-yl)-1H-1,2,3-triazol-1-yl]-3-deoxy-2-O-methyl-1-thio-α-D-galactopyranoside], for which the Kd (in general, the free concentration of one partner at which half of the binding sites on the other are occupied at equilibrium, for simple one-to-one binding) was found to be 0.057 µM on Galectin-1 and 0.16 µM at Galectin-3.

Turning to `COC1C(n2cc(-n3ccc(Cl)n3)nn2)[C@@H](O)C(CO)O[C@@H]1Sc1cc(Br)cnc1C(F)(F)F` (stereo partly drawn) [Example 7, 5-Bromo-2-(trifluoromethyl)pyridin-3-yl 3-[4-(3-chloro-1H-1,2-pyrazol-1-yl)-1H-1,2,3-triazol-1-yl]-3-deoxy-2-O-methyl-1-thio-α-D-galactopyranoside], the figures for the Kd at Galectin-1 and on Galectin-3 were 0.15 µM and 0.21 µM, respectively.

Turning to `COC1C(n2cc(-n3ccc(Cl)n3)nn2)[C@@H](O)C(CO)O[C@@H]1Sc1cc(Br)cnc1C(=O)N(CC1CCC1)CC1CCC1` (stereo partly drawn) [Example 27, 5-Bromo-2-[N,N-bis(cyclobutylmethyl)carbamoyl]pyridin-3-yl 3-[4-(3-chloro-1H-1,2-pyrazol-1-yl)-1H-1,2,3-triazol-1-yl]-3-deoxy-2-O-methyl-1-thio-α-D-galactopyranoside], the Kd on Galectin-1 was found to be 0.38 µM; on Galectin-3, 0.26 µM.

Consider `COC1C(n2cc(-n3cc(Cl)cn3)nn2)[C@@H](O)C(CO)O[C@@H]1Sc1cc(Br)cnc1C#N` (stereo partly drawn) [Example 11, 5-Bromo-2-cyanopyridin-3-yl 3-[4-(4-chloro-1H-1,2-pyrazol-1-yl)-1H-1,2,3-triazol-1-yl]-3-deoxy-2-O-methyl-1-thio-α-D-galactopyranoside], for which the Kd at Galectin-1 is 0.52 µM; at Galectin-3, 0.42 µM.

For `COC1C(n2cc(-n3ccc(Cl)n3)nn2)[C@@H](O)C(CO)O[C@@H]1Sc1cc(Cl)cnc1C(F)(F)F` (stereo partly drawn) [Example 6, 5-Chloro-2-(trifluoromethyl)pyridin-3-yl 3-[4-(3-chloro-1H-1,2-pyrazol-1-yl)-1H-1,2,3-triazol-1-yl]-3-deoxy-2-O-methyl-1-thio-α-D-galactopyranoside], the values for the Kd on Galectin-1 and on Galectin-3 were 0.2 µM and 0.27 µM, respectively.

For the molecule `COC1C(n2cc(-n3cc(Cl)c(Cl)n3)nn2)[C@@H](O)C(CO)O[C@@H]1Sc1cc(Br)cnc1C#N` (stereo partly drawn) [Example 42, 5-Bromo-2-cyanopyridin-3-yl 3-[4-(3,4-dichloro-1H-1,2-pyrazol-1-yl)-1H-1,2,3-triazol-1-yl]-3-deoxy-2-O-methyl-1-thio-α-D-galactopyranoside], the Kd on Galectin-1 worked out at 0.29 µM; at Galectin-3 it was 0.03 µM.

As for `CNC(=O)c1ncc(Br)cc1S[C@H]1OC(CO)[C@H](O)C(n2cc(-n3ccc(Cl)n3)nn2)C1OC` (stereo partly drawn) [Example 34, 5-Bromo-2-(N-methylcarbamoyl)pyridin-3-yl 3-[4-(3-chloro-1H-1,2-pyrazol-1-yl)-1H-1,2,3-triazol-1-yl]-3-deoxy-2-O-methyl-1-thio-α-D-galactopyranoside], the values for the Kd at Galectin-1 and at Galectin-3 were 0.063 µM and 0.14 µM, respectively.

Take `COC1[C@@H](Sc2cc(Br)cnc2C(=O)NCC(C)C)OC(CO)[C@H](O)[C@@H]1n1cc(-n2ccc(Cl)n2)nn1` (stereo partly drawn) [Example 37, 5-Bromo-2-(N-isobutylcarbamoyl)pyridin-3-yl 3-[4-(3-chloro-1H-1,2-pyrazol-1-yl)-1H-1,2,3-triazol-1-yl]-3-deoxy-2-O-methyl-1-thio-α-D-galactopyranoside]: the Kd at Galectin-1 is 0.092 µM; at Galectin-3 it was 0.11 µM.

`COC1[C@@H](Sc2cc(Br)cnc2C(=O)NC23CC(C2)C3)OC(CO)[C@H](O)[C@@H]1n1cc(-n2ccc(Cl)n2)nn1` (stereo partly drawn) [Example 39, 5-Bromo-2-(N-bicyclo[1.1.1]pentan-1-ylcarbamoyl)pyridin-3-yl 3-[4-(3-chloro-1H-1,2-pyrazol-1-yl)-1H-1,2,3-triazol-1-yl]-3-deoxy-2-O-methyl-1-thio-α-D-galactopyranoside]: the values for the Kd at Galectin-1 and on Galectin-3 were 0.064 µM and 0.18 µM, respectively.

On to `COC1[C@@H](Sc2cc(Br)cnc2C(=O)NC2CC2)OC(CO)[C@H](O)[C@@H]1n1cc(-n2ccc(Cl)n2)nn1` (stereo partly drawn) [Example 41, 5-Bromo-2-(N-cyclopropylcarbamoyl)pyridin-3-yl 3-[4-(3-chloro-1H-1,2-pyrazol-1-yl)-1H-1,2,3-triazol-1-yl]-3-deoxy-2-O-methyl-1-thio-α-D-galactopyranoside], for which the Kd on Galectin-1 came to 0.073 µM; on Galectin-3 it was 0.16 µM.

On to `COC1C(n2cc(-n3cc(C)c(Cl)n3)nn2)[C@@H](O)C(CO)O[C@@H]1Sc1cc(Br)cnc1C#N` (stereo partly drawn) [Example 18, 5-Bromo-2-cyanopyridin-3-yl 3-[4-(3-chloro-4-methyl-1H-1,2-pyrazol-1-yl)-1H-1,2,3-triazol-1-yl]-3-deoxy-2-O-methyl-1-thio-α-D-galactopyranoside], for which the Kd at Galectin-1 was 0.35 µM; at Galectin-3, 0.041 µM.

For the molecule `COC1C(n2cc(-n3nc(C(F)(F)F)cc3Cl)nn2)[C@@H](O)C(CO)O[C@@H]1Sc1cc(Br)cnc1C#N` (stereo partly drawn) [Example 17, 5-Bromo-2-cyanopyridin-3-yl 3-{4-[5-chloro-3-(trifluoromethyl)-1H-1,2-pyrazol-1-yl]-1H-1,2,3-triazol-1-yl}-3-deoxy-2-O-methyl-1-thio-α-D-galactopyranoside], the Kd stood at 2 µM on Galectin-1 and 0.56 µM on Galectin-3.

Consider `COC1C(n2cc(-n3ccc(Cl)n3)nn2)[C@@H](O)C(CO)O[C@@H]1Sc1cc(Br)cnc1C(=O)N(CC1CC1)OC` (stereo partly drawn) [Example 33, 5-Bromo-2-[N,N-(cyclopropylmethyl)methoxycarbamoyl]pyridin-3-yl 3-[4-(3-chloro-1H-1,2-pyrazol-1-yl)-1H-1,2,3-triazol-1-yl]-3-deoxy-2-O-methyl-1-thio-α-D-galactopyranoside], for which the results for the Kd at Galectin-1 and on Galectin-3 were 0.074 µM and 0.068 µM, respectively.

For the molecule `COC1C(n2cc(-n3ccc(Cl)n3)nn2)[C@@H](O)C(CO)O[C@@H]1Sc1cc(Br)cnc1C(=O)N1CCCC1` (stereo partly drawn) [Example 28, 5-Bromo-2-(pyrrolidine-1-carbonyl)pyridin-3-yl 3-[4-(3-chloro-1H-1,2-pyrazol-1-yl)-1H-1,2,3-triazol-1-yl]-3-deoxy-2-O-methyl-1-thio-α-D-galactopyranoside], the Kd at Galectin-1 was determined as 0.069 µM; at Galectin-3, 0.052 µM.

Take `COC1C(n2cc(-n3ccc(F)n3)nn2)[C@@H](O)C(CO)O[C@@H]1Sc1cc(Br)cnc1C#N` (stereo partly drawn) [Example 12, 5-Bromo-2-cyanopyridin-3-yl 3-deoxy-3-[4-(3-fluoro-1H-1,2-pyrazol-1-yl)-1H-1,2,3-triazol-1-yl]-2-O-methyl-1-thio-α-D-galactopyranoside]: the Kd came out at 0.18 µM at Galectin-1 and 0.16 µM on Galectin-3.

Consider `COC1C(n2cc(-n3ccc(Cl)n3)nn2)[C@@H](O)C(CO)O[C@@H]1Sc1cc(Br)cnc1C(=O)N(CC(C)C)CC(C)C` (stereo partly drawn) [Example 20, 5-Bromo-2-(N,N-diisobutylcarbamoyl)pyridin-3-yl 3-[4-(3-chloro-1H-1,2-pyrazol-1-yl)-1H-1,2,3-triazol-1-yl]-3-deoxy-2-O-methyl-1-thio-α-D-galactopyranoside], for which the Kd on Galectin-1 and on Galectin-3 was 0.36 µM each time.

Regarding `OCC1O[C@H](Sc2cncc(Cl)c2)C(O)C(n2cc(-n3ccc(Cl)n3)nn2)[C@H]1O` (stereo partly drawn) [Example 5, 5-Chloropyridin-3-yl 3-[4-(3-chloro-1H-1,2-pyrazol-1-yl)-1H-1,2,3-triazol-1-yl]-3-deoxy-1-thio-α-D-galactopyranoside], the figures for the Kd on Galectin-1 and at Galectin-3 were 0.5 µM and 0.31 µM, respectively.

Regarding `CCN(C(=O)c1ncc(Br)cc1S[C@H]1OC(CO)[C@H](O)C(n2cc(-n3ccc(Cl)n3)nn2)C1OC)C(C)(C)C` (stereo partly drawn) [Example 23, 5-Bromo-2-[N,N-(tert-butyl)ethylcarbamoyl]pyridin-3-yl 3-[4-(3-chloro-1H-1,2-pyrazol-1-yl)-1H-1,2,3-triazol-1-yl]-3-deoxy-2-O-methyl-1-thio-α-D-galactopyranoside], the Kd was found to be 0.087 µM at Galectin-1 and 0.072 µM at Galectin-3.

As to `CCN(CC1CCC1)C(=O)c1ncc(Br)cc1S[C@H]1OC(CO)[C@H](O)C(n2cc(-n3ccc(Cl)n3)nn2)C1OC` (stereo partly drawn) [Example 25, 5-Bromo-2-[N,N-(cyclobutylmethyl)ethylcarbamoyl}pyridin-3-yl 3-[4-(3-chloro-1H-1,2-pyrazol-1-yl)-1H-1,2,3-triazol-1-yl]-3-deoxy-2-O-methyl-1-thio-α-D-galactopyranoside], the figures for the Kd on Galectin-1 and on Galectin-3 were 0.14 µM and 0.075 µM, respectively.

On to `CCCCNC(=O)c1ncc(Br)cc1S[C@H]1OC(CO)[C@H](O)[C@H](n2cc(-n3ccc(Cl)n3)nn2)C1OC` (stereo partly drawn) [Example 36, 5-Bromo-2-(N-butylcarbamoyl)pyridin-3-yl 3-[4-(3-chloro-1H-1,2-pyrazol-1-yl)-1H-1,2,3-triazol-1-yl]-3-deoxy-2-O-methyl-1-thio-α-D-galactopyranoside], for which the Kd at Galectin-1 was 0.11 µM; on Galectin-3 it was 0.14 µM.

For `COC1C(n2cc(-n3ccc(Cl)n3)nn2)[C@@H](O)C(CO)O[C@@H]1Sc1cc(Br)cnc1C(=O)N(C)CC(C)(C)F` (stereo partly drawn) [Example 22, 5-Bromo-2-[N,N-(2-fluoro-2-methylpropyl)methylcarbamoyl]pyridin-3-yl 3-[4-(3-chloro-1H-1,2-pyrazol-1-yl)-1H-1,2,3-triazol-1-yl]-3-deoxy-2-O-methyl-1-thio-α-D-galactopyranoside], the Kd was 0.098 µM at Galectin-1 and 0.076 µM on Galectin-3.

Regarding `CCN(CC1CC1)C(=O)c1ncc(Br)cc1S[C@H]1OC(CO)[C@H](O)C(n2cc(-n3ccc(Cl)n3)nn2)C1OC` (stereo partly drawn) [Example 21, 5-Bromo-2-[N,N-(cyclopropylmethyl)ethylcarbamoyl]pyridin-3-yl 3-[4-(3-chloro-1H-1,2-pyrazol-1-yl)-1H-1,2,3-triazol-1-yl]-3-deoxy-2-O-methyl-1-thio-α-D-galactopyranoside], the Kd on Galectin-1 and on Galectin-3 was 0.1 µM in each case.

(Values after patent US20240287122A1, “NOVEL GALACTOSIDE INHIBITOR OF GALECTINS” (GALECTO BIOTECH AB, priority 2020, published 2024).)
